Data on three molecules can be found in paper PMC6203352, “Involvement of VNUT-exocytosis in transient receptor potential vanilloid 4-dependent ATP release from gastrointestinal epithelium” (PLoS ONE, 2018).

Type in all cases: cell-based
The target of assay [1] is T1, TRPV4 (Homo sapiens, UniProt Q9HBA0). Description: inhibition of GSK101 ([…])-induced Ca2+ response, fura-2 imaging in CCD […] cells (endogenous TRPV4).
For assay [2], the target named is T1, TRPV4. The assay is described as follows: fura-2 Ca2+ imaging dose-response in CCD […] cells (endogenous TRPV4), blocked by RN1734.
For assay [3], the target named is T1, TRPV4. The assay is described as follows: fura-2 Ca2+ imaging dose-response in CCD […] cells (endogenous TRPV4).

T1 sequence (Q9HBA0 whole entry): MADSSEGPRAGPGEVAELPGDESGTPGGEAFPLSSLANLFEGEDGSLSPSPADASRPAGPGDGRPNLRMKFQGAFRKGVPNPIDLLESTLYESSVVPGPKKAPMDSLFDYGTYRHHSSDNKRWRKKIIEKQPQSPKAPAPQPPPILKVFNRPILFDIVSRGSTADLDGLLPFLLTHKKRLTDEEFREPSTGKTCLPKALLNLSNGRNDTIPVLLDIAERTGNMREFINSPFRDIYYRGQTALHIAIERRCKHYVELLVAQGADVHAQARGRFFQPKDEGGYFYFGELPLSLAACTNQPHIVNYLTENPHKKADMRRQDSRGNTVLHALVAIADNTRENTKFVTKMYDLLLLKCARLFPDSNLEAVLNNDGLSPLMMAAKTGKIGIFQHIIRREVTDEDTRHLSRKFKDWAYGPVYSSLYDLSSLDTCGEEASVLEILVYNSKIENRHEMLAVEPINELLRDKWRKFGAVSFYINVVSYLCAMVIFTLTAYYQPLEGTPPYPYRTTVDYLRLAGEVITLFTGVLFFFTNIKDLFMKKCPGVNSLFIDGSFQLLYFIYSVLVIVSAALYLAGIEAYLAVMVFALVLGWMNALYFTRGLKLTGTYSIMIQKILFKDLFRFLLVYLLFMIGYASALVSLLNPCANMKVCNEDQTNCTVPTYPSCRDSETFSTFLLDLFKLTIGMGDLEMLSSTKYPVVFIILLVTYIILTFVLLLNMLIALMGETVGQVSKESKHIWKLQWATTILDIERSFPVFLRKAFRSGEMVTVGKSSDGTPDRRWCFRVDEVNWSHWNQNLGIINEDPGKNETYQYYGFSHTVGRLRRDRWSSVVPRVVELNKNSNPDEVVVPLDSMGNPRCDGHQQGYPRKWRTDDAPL

By IC50 is commonly meant the concentration that inhibits the measured activity by half. Read a high IC50 as a need for much substance. The molecule `CC(C)NCCN(C(C)C)S(=O)(=O)c1ccc(Cl)cc1Cl` [RN1734] gave an IC50 in assay [1] of 0.703 nM.

For orientation: EC50 means the concentration at which the effect is half-maximal. `CCCCC/C=C\C/C=C\CC1OC1C/C=C\CCCC(=O)OC` (stereo not drawn) [8,9-EET methylestel] gave an EC50 in assay [2] of 111 nM.

`CC(C)C[C@H](NC(=O)c1cc2ccccc2s1)C(=O)N1CCN(C(=O)[C@H](CO)NS(=O)(=O)c2ccc(Cl)cc2Cl)CC1` [GSK101, N-((1S)-1-{[4-((2S)-2-{[(2,4-dichlorophenyl)sulfonyl]amino}-3-hydroxypropanoyl)-1-piperazinyl]carbonyl}-3-methylbutyl)-1-benzothiophene-2-carboxamide]: a half-maximal response in assay [3] (EC50) required 231 nM.
